The text below walks through data of article PMC4389225, “Triaminopyrimidine is a fast-killing and long-acting antimalarial clinical candidate” (Nature Communications, 2015).

SMILES strings stand for the structures. Several values for one entry are separate records, joined by “and”; a condition that tells them apart may be missing. Equal entries are not always repeated. Where two headings read alike, the source gives them in different places.

Details of data set [1]: species or system human. The text has this: Supplementary Note 5: Prediction of human clearance for compound 12 by IVIVE.
Human clearance (CL) was predicted by in vitro-in vivo extrapolation (IVIVE) from the in vitro Clint in human hepatocytes6. In vitro Clint was scaled to in vivo Clint as follows:
Clint in vivo = Clint in vitro * scaling factors * fublood/fuinc
The liver weights used for scaling were 40, 32 and 24 g/kg body weight in rat, dog and human respectively. Hepatocellularity used for scaling was 163, 169 and 120 (X 106) cells/g liver in rat, dog and human respectively. Free fraction in blood was calculated as fuplasma /Blood:Plasma (BP) ratio. BP ratio and free fraction in the hepatocyte incubation mix, fuinc, were measured in vitro. Slope and intercept from the linear regression analysis of IVIVC for a large number of AstraZeneca compounds was applied for final correction in the scaled in vivo Clint. A well stirred model was used for CL prediction.
Where Qh is the liver blood flow. The values of Qh in rat, dog and human are 72, 55 and 20 mL.min-1kg-1 in rat, dog and human, respectively. In vitro parameters, observed in vivo CL and predicted CL are shown in supplementary Table 10.
Prediction of human CL and Vss by rat and dog allometry. Human CL for 12 was also predicted by simple, two species (rat and dog) allometry based on CL and Vss estimates from rat and dog IVPK. The coefficient and exponent from allometry were used for human CL prediction by the Fu corrected intercept method (FCIM)7. CL was predicted as […]
(also on this page, place not known: in vivo in vivo CLintQ CLintQCL Predicted predicted predicted h h + ×=)
(1 picture or pasted object on this page, not shown here)
Where ‘a’ is the coefficient obtained from simple allometric scaling and Rfup is the ratio of free fractions in plasma, fup in rat to fup in human. Vss in human was predicted by simple, rat and dog allometry (supplementary Table 11).
Prediction of human PK profile. The predicted human CL and Vss estimates could be used for predicting human PK with a one compartment distribution. However, rat and dog IVPK profiles indicated a two compartment distribution. Parameters for the two compartment distribution in human were predicted by Wajima transformation8 of rat and dog IVPK […]
CLd, Vt and Vc estimates, assuming similar Ka (0.3/h) and F (0.7) as observed in rats (supplementary Fig. 12 ).
Predicted human PK parameters are shown in supplementary Table 12. Human CL estimates predicted by the FCIM method and IVIVE (3.8 ml/min/kg) were identical. The […]
Human efficacy was predicted after treatment of 70 kg adult with a single 260 mg dose, assuming 2% parasitemia at the onset of treatment and assuming one compartment distribution of 12 in humans (supplementary Fig. 13). Similar efficacy was predicted if 12 was distributed in two compartments.

Data set [2] in a line: Plasma protein binding, dog.
Where [3] appears, read: 260 mg / 70 kg, two compartment.

Regarding `Cc1nc(Nc2ncc(N3CCN(C)[C@H](C)C3)c(Nc3cc(C)n(C)n3)n2)cc(C2CC2)c1F` [compound 12, (R)-N2-(4-cyclopropyl-5-fluoro-6-methylpyridin-2-yl)-N4-(1,5-dimethyl-1H-pyrazol-3-yl)-5-(3,4-dimethylpiperazin-1-yl)pyrimidine-2,4-diamine], in data set [1] (setting [3]), the “Predicted human CL” value is 4.33 mL/min/kg, the “Predicted human CLd” value is 20 mL/min/kg, the “Predicted human Vc” value is 4.0 L/kg and the “Predicted human Vt” value is 7.3 L/kg. Moreover, in data set [1] (Human), the “Human CL predicted by the FCIM method and IVIVE” value was 3.8 mL/min/kg; the “Predicted blood CL” value was 24 % LBF. The “Predicted blood CL” value in data set [1] (Human, IVIVE from hepatocyte Clint) is 3.8 mL/min/kg. For the same compound, in data set [1] (assumed similar to rats), the “Predicted human F” value is 0.7 and the “Predicted human Ka” value was 0.3 h⁻¹. Besides, the “B—predicted mean human plasma Cmax free” value in data set [1] (human, 260 mg dose) was 8.7 nM. The “predicted half-life in human” value in data set [1] (human, predicted) is ~ 36 h and 36 h. For the same compound, in data set [1] (rat and dog allometry), the “Allometry parameter B (exponent), CL” value is recorded as 1.08 and the “Allometry parameter a (coefficient), CL” value amounted to 0.6. For the same compound, the “Plasma protein binding (% free)” value in data set [2] (Dog) came to 3.8 % free. In addition, in data set [2] (dog, plasma), the free fraction (fraction unbound) (usually the share of the substance not bound to proteins or other matrix) came to 0.038.
